According to patent publication US11779602B2, “Methods of use for CAR T cells” (ENDOCYTE, INC., priority 2018, dated 2023):

Experiments:
[1] = tested on: target cells expressing surface folate receptor (OV90, SKOV3, IGROV1, HOS-FRα, MDA-MB-231); test: Two day co-culture target cell kill assay (Annexin V); format: cell-based, human; conditions: 100 nM EC17 30 min pre-treatment, E:T 1:1, two days
Protocol: On day −1, 100,000 target cells were plated in 2 ml of growth media per well of a 12-well tissue culture plate to allow target cells to adhere and recover. On day 0, wells which received EC17 bridge molecule were treated with EC17 at 100 nM for 30 min in the tissue culture incubator. Afterwards, all media was washed off and replaced with fresh growth media free of folate and EC17. During the EC17 incubation, T cells were harvested, counted and after EC17 treatment was completed, 100,000 E2 CAR T cells were directly added onto each well of target cells in a total of 3 ml of growth media at a ratio of 1:1 (E:T) and incubated for both 1 and 2 days under standard tissue culture humidified conditions of 37° C. at 5% CO2. One day co-culture conditions were used to assay E2 CAR T cell activation by target cells and two-day incubation was used to assay target cell death. […]
To confirm that E2 CAR T cell activation also translates to successful killing of the target cells we performed a two-day co-culture assay then looked at target cell (EGFR-CD3-) events via flow cytometry and determined the percentage of target cell staining with the apoptotic surface marker, Annexin V stain. […]

[2] = tested on: MDA-MB-231 tumors; test: Dietary folate effect on antitumor activity and CRS, MDA-MB-231 tumors in NSG mice; format: in vivo
Protocol: To study the effect of high dietary folate (FIGS. 63A-K), two sets of NSG mice were placed on either a FA-replete diet (4 mg/kg, Envigo, Indianapolis, Ind.) or a FA-deficient diet (TestDiet, St. Louis, Mo.) upon arrival. On day 0, both sets of the mice received ˜10 million of the same “clinical facsimile” CAR-T cells followed by no EC17 or EC17 SIW at 500 nmol/kg starting on day 3. On the first day of EC17 administration, MDA-MB-231 tumors size averaged around ˜549±184 mm^3 (280-918 mm^3) in FA-replete mice, and ˜559±165 mm^3 (356-961 mm^3) in FA-deficient mice.
Previously, it was shown that administration of FA or a FA ligand helped reduce the severity of CRS in MDA-MB-231 tumor-bearing mice. To test the long-term effect of dietary folate, mice were maintained on defined diets for ˜73 days and used when their tumors reached ˜549±184 mm^3 (280-918 mm^3) in FA-replete mice, and ˜559±165 mm^3 (356-961 mm^3) in FA-deficient mice (FIGS. 63A-K).
Since we started MDA-MB-231 tumors at larger sizes than previous studies, tumor regression due to alloreactivity at this 10-million “clinical facsimile” CAR-T cell dose was not apparent (FIGS. 63A and 63C).
Using anti-human EGFR (clone Hu1) to identify MDA-MB-231 cancer cells within mouse tumor masses after an enzymatic digestion, we analyzed FRα protein expression (clone LK26) in three tumors recovered from mice on FA-replete diet that experienced a relapse despite continuing EC17 treatment. By flow cytometric detection, EGFR+ cancer cells isolated from the smallest tumor (21 mg) expressed FRα, while EGFR+ cancer cells isolated from the two larger tumors (90 mg and 363 mg) had completely lost their FRα expression (FIGS. 63I-K). Using the quantitative radioligand binding assay with ^3H-FA, the loss of functional FR levels on tissue homogenates obtained from these tumors was confirmed (˜2.1 pmol/mg binding potential versus ˜103 pmol/mg in tumors from untreated animals). Therefore, FA-deficiency may lead to enhanced activity and CRS toxicity; while non-physiological FA intake prevents CRS and continuous consumption may lead to reduced activity.

SMILES: NC1=NC2N=CC(CNc3ccc(C(=O)N[C@@H](CCC(=O)NCCNC(=S)Nc4ccc(-c5c6ccc(=O)cc-6oc6cc(O)ccc56)c(C(=O)O)c4)C(=O)O)cc3)=NC2C(=O)N1 (some centres unmarked) [EC17, FA-(γ)-ethylenediamine-FITC]
- requirement of EC17 binding for target cell kill [1]: required for cell kill
- CD3ε+EGFRt+ CAR-T cells in blood ([2]; FA-deficient diet, day 52): 1.6-20.4×10^4 per 100 μL blood
- CRS grade ([2]; FA-deficient diet, subsequent EC17 doses): 2-3 grade
- CD3ε+EGFRt+ CAR-T cells in blood ([2]; FA-replete diet, day 59): 0.027-4.3×10^3 per 100 μL blood
- CRS ([2]; FA-replete diet, ~10 million CAR-T cells, EC17 500 nmol/kg weekly): did not show symptoms of CRS
